Results taken from article PMC9001978, “Determining the Effects of Differential Expression of GRKs and β-arrestins on CLR-RAMP Agonist Bias” (Frontiers in Physiology, 2022).

Columns and labels:
CLR-RAMP3 [1] = target: T1, CLR-RAMP3 (Homo sapiens, UniProt O60896+Q16602); assay: β-arrestin2 recruitment to CLR-RAMP3 (BRET); conditions: HEK293T, n = 3
CLR-RAMP1 [2] = target: T2, CLR-RAMP1 (Homo sapiens, UniProt O60894+Q16602); assay: β-arrestin1 recruitment to CLR-RAMP1 (BRET); conditions: HEK293T, n = 3
HEK293T cells = assay: cAMP accumulation in HEK293T cells with endogenous CLR and RAMPs; type: cell-based; conditions: far lower potency than expected of CLR with any RAMP
CLR-RAMP1 [3] = target: T2, CLR-RAMP1; assay: cAMP accumulation at CLR-RAMP1
CLR-RAMP1 [4] = target: T2, CLR-RAMP1; assay: β-arrestin2 recruitment to CLR-RAMP1 (BRET); conditions: HEK293T, n = 3
CLR-RAMP3 [5] = target: T1, CLR-RAMP3; assay: Internalisation of CLR-RAMP3 (BRET CLR-Nluc / RIT-Venus); conditions: HEK293T, CLR-Nluc + FLAG-RAMP3, RIT-Venus BRET; mean ± SEM, n = 4-5
CLR-RAMP3 [6] = target: T1, CLR-RAMP3; assay: β-arrestin1 recruitment to CLR-RAMP3 (BRET); conditions: HEK293T, n = 3
CLR-RAMP1 [7] = target: T2, CLR-RAMP1; assay: Internalisation of CLR-RAMP1 (BRET CLR-Nluc / RIT-Venus); conditions: HEK293T, CLR-Nluc + FLAG-RAMP1, RIT-Venus BRET; mean ± SEM, n = 3-4
[8] = target: T3, CLR-Nluc in complex with FLAG-RAMP1 (CGRP receptor) (UniProt Q16602 23-461; O60894 27-148)
T3 construct: calcitonin-like receptor (CLR), direct C-terminal in-frame fusion to NanoLuc, in pcDNA3.1(-); receptor activity modifying protein 1 (RAMP1), pcDNA3.1(+)FLAG-RAMP, described in Weston et al., 2016 and Harris et al., 2021; Harris et al., 2021; also called CLR-RAMP1; calcitonin-like receptor with receptor activity modifying protein 1; source: HEK293T, transfected, in living cells; not shown: …

[9] = target: T4, CLR-Nluc in complex with FLAG-RAMP2 (adrenomedullin 1 receptor) (UniProt Q16602 23-461; O60895 43-175); assay: FRET or BRET; living HEK293T cells transfected with CLR-Nluc (donor), FLAG-RAMP1/2/3 and β-arrestin1/2-YFP (acceptor); 5 μM coelenterazine-h; stimulated with AM, 1 μM to 10 pM; BRET ratio 460/530 nm read for at least 20 min; conditions: partners not purified
T4 construct: calcitonin-like receptor (CLR), direct C-terminal in-frame fusion to NanoLuc, in pcDNA3.1(-); receptor activity modifying protein 2 (RAMP2), pcDNA3.1(+)FLAG-RAMP, described in Weston et al., 2016 and Harris et al., 2021; Harris et al., 2021; also called CLR-RAMP2; AM1R; source: HEK293T, transfected, in living cells; not shown: NanoLuc, C-terminal, kept; FLAG, N-terminal, kept
T4 sequence (Q16602 23-461, chain 1 of 2): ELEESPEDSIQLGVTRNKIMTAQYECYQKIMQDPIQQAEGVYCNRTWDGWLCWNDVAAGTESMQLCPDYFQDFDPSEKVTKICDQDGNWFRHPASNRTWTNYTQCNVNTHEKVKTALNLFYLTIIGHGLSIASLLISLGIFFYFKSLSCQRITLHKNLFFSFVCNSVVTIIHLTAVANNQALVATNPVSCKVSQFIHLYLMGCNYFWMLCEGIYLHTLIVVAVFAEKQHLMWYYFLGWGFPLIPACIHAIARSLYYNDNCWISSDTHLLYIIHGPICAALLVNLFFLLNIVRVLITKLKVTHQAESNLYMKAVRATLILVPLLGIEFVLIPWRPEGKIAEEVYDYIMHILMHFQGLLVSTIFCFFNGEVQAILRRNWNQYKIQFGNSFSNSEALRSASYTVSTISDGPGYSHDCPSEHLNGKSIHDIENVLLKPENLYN
T4 sequence (O60895 43-175, chain 2 of 2): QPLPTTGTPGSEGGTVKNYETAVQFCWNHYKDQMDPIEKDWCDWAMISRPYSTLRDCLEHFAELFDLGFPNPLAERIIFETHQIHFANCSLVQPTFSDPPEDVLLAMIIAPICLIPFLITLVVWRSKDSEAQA

T2 sequence (Q16602 23-461): as the sequence (Q16602 23-461, chain 1 of 2) above
T2 sequence (O60894 27-148): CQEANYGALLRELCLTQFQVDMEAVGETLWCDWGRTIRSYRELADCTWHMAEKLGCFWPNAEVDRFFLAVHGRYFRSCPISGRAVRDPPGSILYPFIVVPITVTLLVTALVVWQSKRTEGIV
T1 sequence (Q16602 23-461): as the sequence (Q16602 23-461, chain 1 of 2) above
T1 sequence (O60896 24-148): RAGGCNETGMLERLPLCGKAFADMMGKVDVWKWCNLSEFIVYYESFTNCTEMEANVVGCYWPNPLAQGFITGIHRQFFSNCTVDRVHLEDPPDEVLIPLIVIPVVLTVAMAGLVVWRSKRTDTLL
T3 sequence (Q16602 23-461, chain 1 of 2): as the sequence (Q16602 23-461, chain 1 of 2) above
T3 sequence (O60894 27-148, chain 2 of 2): as the sequence (O60894 27-148) above

## CC[C@H](C)[C@H](NC(=O)[C@H](CCC(N)=O)NC(=O)[C@H](Cc1c[nH]cn1)NC(=O)[C@H](C)NC(=O)[C@H](CC(C)C)NC(=O)[C@H](CCCCN)NC(=O)[C@H](CCC(N)=O)NC(=O)[C@@H](NC(=O)[C@@H](NC(=O)[C@@H]1CSSC[C@H](NC(=O)CNC(=O)[C@H](Cc2ccccc2)NC(=O)[C@H](CO)NC(=O)[C@H](CCCNC(=N)N)NC(=O)[C@H](CC(C)C)NC(=O)CNC(=O)[C@H](CCC(N)=O)NC(=O)[C@H](Cc2ccccc2)NC(=O)[C@H](CC(N)=O)NC(=O)[C@H](CC(N)=O)NC(=O)[C@H](CCSC)NC(=O)[C@H](CO)NC(=O)[C@H](CCC(N)=O)NC(=O)[C@H](CCCNC(=N)N)NC(=O)[C@@H](N)Cc2ccc(O)cc2)C(=O)N[C@@H](CCCNC(=N)N)C(=O)N[C@@H](Cc2ccccc2)C(=O)NCC(=O)N[C@@H]([C@@H](C)O)C(=O)N1)[C@@H](C)O)C(C)C)C(=O)N[C@@H](Cc1ccc(O)cc1)C(=O)N[C@@H](CCC(N)=O)C(=O)N[C@@H](Cc1ccccc1)C(=O)N[C@H](C(=O)N[C@@H](CC(=O)O)C(=O)N[C@@H](CCCCN)C(=O)N[C@@H](CC(=O)O)C(=O)N[C@@H](CCCCN)C(=O)N[C@@H](CC(=O)O)C(=O)N[C@@H](CC(N)=O)C(=O)N[C@H](C(=O)N[C@@H](C)C(=O)N1CCC[C@H]1C(=O)N[C@@H](CCCNC(=N)N)C(=O)N[C@@H](CO)C(=O)N[C@@H](CCCCN)C(=O)N[C@H](C(=O)N[C@@H](CO)C(=O)N1CCC[C@H]1C(=O)N[C@@H](CCC(N)=O)C(=O)NCC(=O)N[C@@H](Cc1ccc(O)cc1)C(N)=O)[C@@H](C)CC)C(C)C)[C@@H](C)O [AM, adrenomedullin]
CLR-RAMP3 [1]; CLR-Nluc + FLAG-RAMP3 + β-arrestin2-YFP, BRET, mean ± SEM
  Emax, β-arrestin2 recruitment: 11 ± 1 BRET units (x10^-3)
CLR-RAMP3 [1]; GRK2 overexpressed
  Emax, β-arrestin2 recruitment: 8 ± 1 BRET units (x10^-3)
CLR-RAMP3 [1]; GRK3 overexpressed
  Emax, β-arrestin2 recruitment: 11 ± 2 BRET units (x10^-3)
CLR-RAMP3 [1]; GRK4 overexpressed
  Emax, β-arrestin2 recruitment: 8 ± 1 BRET units (x10^-3)
CLR-RAMP3 [1]; GRK series: Vector
  Emax, β-arrestin2 recruitment: 11 ± 1 BRET units (x10^-3)
CLR-RAMP1 [2]; CLR-Nluc + FLAG-RAMP1 + β-arrestin1-YFP, BRET, mean ± SEM
  Emax, β-arrestin1 recruitment: ~63 ± 14 BRET units (x10^-3)
CLR-RAMP1 [2]; GRK2 overexpressed
  Emax, β-arrestin1 recruitment: ~57 ± 7 BRET units (x10^-3)
CLR-RAMP1 [2]; GRK3 overexpressed
  Emax, β-arrestin1 recruitment: ~43 ± 5 BRET units (x10^-3)
CLR-RAMP1 [2]; GRK4 overexpressed
  Emax, β-arrestin1 recruitment: ~39 ± 7 BRET units (x10^-3)
CLR-RAMP1 [2]; GRK6 overexpressed
  Emax, β-arrestin1 recruitment: ~11 ± 2 BRET units (x10^-3)
CLR-RAMP1 [2]; GRK series: Vector
  Emax, β-arrestin1 recruitment: ~63 ± 14 BRET units (x10^-3)
HEK293T cells
  cAMP response via endogenous low levels of CLR and RAMPs: small response
CLR-RAMP1 [3]; HEK293T, CLR-Nluc + FLAG-RAMP1, 30 min stimulation, LANCE ultra, mean ± SEM, n = 3-4
  Emax, cAMP accumulation: 84.7 ± 3.0 percentage 100 μM forskolin
CLR-RAMP1 [3]; HEK293T, GRK2 overexpressed, 30 min, n = 3
  Emax, cAMP accumulation: 61.6 ± 3.7 percentage 100μM forskolin
CLR-RAMP1 [3]; HEK293T, GRK3 overexpressed, 30 min, n = 3
  Emax, cAMP accumulation: 46.5 ± 2.9 percentage 100μM forskolin
CLR-RAMP1 [3]; HEK293T, GRK4 overexpressed, 30 min, n = 3
  Emax, cAMP accumulation: 51.3 ± 5.3 percentage 100μM forskolin
CLR-RAMP1 [3]; HEK293T, GRK5 overexpressed, 30 min, n = 3
  Emax, cAMP accumulation: 40.0 ± 4.8 percentage 100μM forskolin
CLR-RAMP1 [3]; HEK293T, GRK6 overexpressed, 30 min, n = 3
  Emax, cAMP accumulation: 58.9 ± 7.4 percentage 100μM forskolin
CLR-RAMP1 [3]; HEK293T, β-arrestin1 overexpressed, 500 μM IBMX, mean ± SEM, n = 4
  Emax, cAMP accumulation: 98.6 ± 2.4 percentage 100 μM forskolin
CLR-RAMP1 [3]; HEK293T, β-arrestin2 overexpressed, 500 μM IBMX, mean ± SEM, n = 3-4
  Emax, cAMP accumulation: 99.3 ± 2.1 percentage 100 μM forskolin
CLR-RAMP1 [3]; HEK293 cells, 500 μM IBMX, mean ± SEM, n = 4
  Emax, cAMP accumulation: 81.1 ± 7.9 percentage 100 μM forskolin
CLR-RAMP1 [3]; HEK293Δβ-arr1/2 cells, 500 μM IBMX, mean ± SEM, n = 4
  Emax, cAMP accumulation: 89.0 ± 5.4 percentage 100 μM forskolin
CLR-RAMP1 [3]; pre-treated with 100 μM barbadin, 30 min, mean ± SEM, n = 5-6
  Emax, cAMP accumulation: ~91.4 ± 5.5 percentage 100μM forskolin
CLR-RAMP1 [3]; pre-treated with 1% DMSO, 30 min, mean ± SEM, n = 5-6
  Emax, cAMP accumulation: 88.0 ± 5.2 percentage 100μM forskolin
CLR-RAMP1 [4]; CLR-Nluc + FLAG-RAMP1 + β-arrestin2-YFP, BRET, mean ± SEM
  Emax, β-arrestin2 recruitment: ~98 ± 10 BRET units (x10^-3)
CLR-RAMP1 [4]; GRK2 overexpressed
  Emax, β-arrestin2 recruitment: ~54 ± 4 BRET units (x10^-3)
CLR-RAMP1 [4]; GRK3 overexpressed
  Emax, β-arrestin2 recruitment: ~47 ± 3 BRET units (x10^-3)
CLR-RAMP1 [4]; GRK4 overexpressed
  Emax, β-arrestin2 recruitment: ~48 ± 3 BRET units (x10^-3)
CLR-RAMP1 [4]; GRK5 overexpressed
  Emax, β-arrestin2 recruitment: 11 ± 1 BRET units (x10^-3)
CLR-RAMP1 [4]; GRK series: Vector
  Emax, β-arrestin2 recruitment: ~98 ± 10 BRET units (x10^-3)
CLR-RAMP3 [5]
  Emax, internalisation: -5 ± 1 BRET units (x10^-3)
CLR-RAMP3 [6]; CLR-Nluc + FLAG-RAMP3 + β-arrestin1-YFP, BRET, mean ± SEM
  Emax, β-arrestin1 recruitment: 8 ± 1 BRET units (x10^-3)
CLR-RAMP3 [6]; GRK2 overexpressed
  Emax, β-arrestin1 recruitment: 6 ± 1 BRET units (x10^-3)
CLR-RAMP3 [6]; GRK3 overexpressed
  Emax, β-arrestin1 recruitment: 5 ± 1 BRET units (x10^-3)
CLR-RAMP3 [6]; GRK4 overexpressed
  Emax, β-arrestin1 recruitment: 4 ± 1 BRET units (x10^-3)
CLR-RAMP3 [6]; GRK series: Vector
  Emax, β-arrestin1 recruitment: 7 ± 1 BRET units (x10^-3)
CLR-RAMP1 [7]
  Emax, internalisation: ~-44 ± 42 BRET units (x10^-3)

## adrenomedullin 2 (from UniProt Q7Z4H4 101-148) (peptide)
[8]
  cAMP accumulation, Emax, cells pretreated with DMSO (vehicle) (% of the response to 100 μM forskolin): 79.8
  cAMP accumulation, Emax, cells pretreated with barbadin (% of the response to 100 μM forskolin): 47.2
  cAMP accumulation, pEC50, cells pretreated with DMSO (vehicle): 6.34
  cAMP accumulation, pEC50, cells pretreated with barbadin: 4.93

B1: β-arrestin1-YFP (natural protein, UniProt P49407 1-418, looked up)
chain: MGDKGTRVFKKASPNGKLTVYLGKRDFVDHIDLVDPVDGVVLVDPEYLKERRVYVTLTCAFRYGREDLDVLGLTFRKDLFVANVQSFPPAPEDKKPLTRLQERLIKKLGEHAYPFTFEIPPNLPCSVTLQPGPEDTGKACGVDYEVKAFCAENLEEKIHKRNSVRLVIRKVQYAPERPGPQPTAETTRQFLMSDKPLHLEASLDKEIYYHGEPISVNVHVTNNTNKTVKKIKISVRQYADICLFNTAQYKCPVAMEEADDTVAPSSTFCKVYTLTPFLANNREKRGLALDGKLKHEDTNLASSTLLREGANREILGIIVSYKVKVKLVVSRGGLLGDLASSDVAVELPFTLMHPKPKEEPPHREVPENETPVDTNLIELDTNDDDIVFEDFARQRLKGMKDDKEEEEDGTGSPQLNNR
notes: β-arrestin1 with an in-frame C-terminal YFP (Mackie et al., 2019); source: HEK293T, transfected, in living cells; not shown: YFP, C-terminal, kept
[9]
  pEC50 of AM for recruitment (BRET): 7.57 ± 0.17
